This is an account of results in US10723741B1, “DNA polymerase IIIC inhibitors and use thereof” (Acurx Pharmaceuticals, LLC, priority 2018, dated 2020).

Common to all, as to format: cell-based
Experiment [1] relates to Staphylococcus aureus NRS384 (MRSA). The experiment can be described thus: Broth microdilution MIC, S. aureus NRS384 (MRSA). Also noted: MIC NRS 384 (MRSA): unit not given here. The settings on record: for MIC: Staphylococcus aureus, read-out: MIC NRS 384 (MRSA). The procedure, abridged:
(§1)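 Broth microdilution in strain-specific test medium with ~5.0×10^5 cfu/ml inoculum, 1% DMSO and two-fold compound dilutions from 64 to 0.0625 μg/ml. Plates were held 20 hours at 37° C in ambient air. S. pneumoniae colonies were grown beforehand on blood agar in 5% CO2.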

Experiment [2] has as its system Staphylococcus aureus ATCC 29213 (MSSA). Kind of experiment: Broth microdilution MIC, S. aureus ATCC 29213 (MSSA). The note with it: read-out: MIC S. aureus ATCC 29213 (MSSA). In outline:
as §1
A general note: In broth dilution the organism is exposed to a series of concentrations in liquid medium.

The subject of experiment [3] is Enterococcus faecalis ATCC 29212. Kind of experiment: Broth microdilution MIC, E. faecalis ATCC 29212. The settings on record: read-out: MIC E. faecalis ATCC 29212. In outline:
as §1

The test system of experiment [4] is Enterococcus faecium ATCC 700221 (VRE). Kind of experiment: Broth microdilution MIC, E. faecium ATCC 700221 (VRE). Also noted: MIC E. faecium ATCC 700221 (VRE): unit: ug/mL. The note with it: for MIC: Enterococcus faecium, read-out: MIC E. faecium ATCC 700221 (VRE). In outline:
as §1

Experiment [5] deals with Streptococcus pneumoniae ATCC 49619. Kind of experiment: Broth microdilution MIC, S. pneumoniae ATCC 49619. The note with it: read-out: MIC S. pneumoniae ATCC 49619. In outline:
as §1

Experiment [6] concerns Bacillus subtilis ATCC 6633. Kind of experiment: Broth microdilution MIC, B. subtilis ATCC 6633. The note with it: read-out: MIC B. subtilis ATCC 6633. In outline:
as §1

Experiment [7] has as its system Escherichia coli ATCC 25922. The experiment can be described thus: Broth microdilution MIC, E. coli ATCC 25922 (MHIIB w & w/o 4 mM EDTA). The note with it: for MIC: Escherichia coli, read-out: MIC E. coli ATCC 25922; for MIC E. coli ATCC 25922 + 4 mM EDTA: with 4 mM EDTA. In outline: as §1
[8] abbreviates: broth microdilution, 37° C., 20 hours.
[9] abbreviates: ATCC29212, broth microdilution, 37° C., 20 hours.
[10] abbreviates: ATCC49619, broth microdilution, 37° C., 20 hours.
[11] abbreviates: ATCC6633, broth microdilution, 37° C., 20 hours.
Where [12] appears, read: ATCC25922, without EDTA, broth microdilution, 37° C., 20 hours.

Converted amounts (≈) assume the structure as drawn. Where two headings read alike, the source gives them in different places.

In general, MIC refers to the lowest concentration that inhibits growth of the organism. Regarding `Cn1ccnc1Cn1ncc2nc(NCc3ccc(Cl)c(Cl)c3)[nH]c(=O)c21` [Compound 97, 5-((3,4-Dichlorobenzyl)amino)-1-((1-methyl-1H-imidazol-2-yl)methyl)-1H-pyrazolo[4,3-d]pyrimidin-7(6H)-one], the minimum inhibitory concentration (MIC) in experiment [1] (setting [8]) was 8 µg/mL (≈ 19.8 µM); in experiment [2] (setting [8]), 8 µg/mL (≈ 19.8 µM); in experiment [3] (setting [9]) it was above 64 µg/mL; in experiment [4] (setting [8]), 8 µg/mL (≈ 19.8 µM); in experiment [5] (setting [10]), 4 µg/mL (≈ 9.89 µM); in experiment [6] (setting [11]), 8 µg/mL (≈ 19.8 µM). The MIC in experiment [7] (setting [12]) is above 64 µg/mL. In experiment [7] (setting [8]), the “MIC E. coli ATCC 25922 + 4 mM EDTA” value was above 64 µg/mL.
Consider `CC(C)(C)OC(=O)N1CCC(n2ncc3nc(NCc4ccc(Cl)c(Cl)c4)[nH]c(=O)c32)C1` (stereo not drawn) [Compound 98, tert-Butyl 3-(5-((3,4-dichlorobenzyl)amino)-7-oxo-6,7-dihydro-1H-pyrazolo[4,3-d]pyrimidin-1-yl)pyrrolidine-1-carboxylate], for which the MIC was 8 µg/mL (≈ 16.7 µM) in experiment [1] (setting [8]); 8 µg/mL (≈ 16.7 µM) in experiment [2] (setting [8]); above 64 µg/mL in experiment [3] (setting [9]); 4 µg/mL (≈ 8.34 µM) in experiment [4] (setting [8]); 16 µg/mL (≈ 33.4 µM) in experiment [5] (setting [10]); 2 µg/mL (≈ 4.17 µM) in experiment [6] (setting [11]). In experiment [7] (setting [12]), the minimal inhibitory concentration (MIC) is above 64 µg/mL. In experiment [7] (setting [8]), the “MIC E. coli ATCC 25922 + 4 mM EDTA” value was above 64 µg/mL.
Take `Cl.NCCOCCn1ncc2nc(NCc3ccc(Cl)c(Cl)c3)[nH]c(=O)c21` [Compound 99, 1-(2-(2-aminoethoxy)ethyl)-5-((3,4-dichlorobenzyl)amino)-1H-pyrazolo[4,3-d]pyrimidin-7(6H)-one hydrochloride]: the MIC was found to be 64 µg/mL in experiment [1] (setting [8]); 64 µg/mL in experiment [2] (setting [8]); 32 µg/mL in experiment [3] (setting [9]); 32 µg/mL in experiment [4] (setting [8]); 4 µg/mL in experiment [5] (setting [10]); 2 µg/mL in experiment [6] (setting [11]). Besides, the MIC in experiment [7] (setting [12]) was above 64 µg/mL. Further, the “MIC E. coli ATCC 25922 + 4 mM EDTA” value in experiment [7] (setting [8]) was 64 µg/mL.
For `CC(C)(C)OC(=O)NCCOCCn1ncc2nc(NCc3ccc(Cl)c(Cl)c3)[nH]c(=O)c21` [Compound 100, tert-Butyl (2-(2-(5-((3,4-dichlorobenzyl)amino)-7-oxo-6,7-dihydro-1H-pyrazolo[4,3-d]pyrimidin-1-yl)ethoxy)ethyl)carbamate], the MIC was above 64 µg/mL in experiment [1] (20 h); above 64 µg/mL in experiment [2] (20 h); above 64 µg/mL in experiment [3] (ATCC29212, 20 h); 4 µg/mL (≈ 8.04 µM) in experiment [4] (20 h); 8 µg/mL (≈ 16.1 µM) in experiment [5] (ATCC49619, 20 h); 2 µg/mL (≈ 4.02 µM) in experiment [6] (ATCC6633, 20 h). Further, the MIC in experiment [7] (ATCC25922, 20 h) was above 64 µg/mL. Besides, the “MIC E. coli ATCC 25922 + 4 mM EDTA” value in experiment [7] (setting [8]) is above 64 µg/mL.
As to `Cl.O=c1[nH]c(NCc2ccc(Cl)c(Cl)c2)nc2cnn(Cn3cncn3)c12` [Compound 101, 1-((1H-1,2,4-triazol-1-yl)methyl)-5-((3,4-dichlorobenzyl)amino)-1H-pyrazolo[4,3-d]pyrimidin-7(6H)-one hydrochloride], the “MIC NRS 384 (MRSA)” value in experiment [1] (setting [8]) was 8/8. In addition, the MIC in experiment [2] (setting [8]) was 4 µg/mL; in experiment [3] (setting [9]) it was 4 µg/mL; in experiment [5] (setting [10]), 4 µg/mL; in experiment [6] (setting [11]) it was 2 µg/mL; in experiment [7] (setting [12]), above 64 µg/mL. Besides, the “MIC E. faecium ATCC 700221 (VRE)” value in experiment [4] (setting [8]) is reported as 2/4. Further, the “MIC E. coli ATCC 25922 + 4 mM EDTA” value in experiment [7] (setting [8]) came out at 64 µg/mL.
With `O=c1[nH]c(NCc2ccc(Cl)c(Cl)c2)nc2cnn(CC3CCCO3)c12` (stereo not drawn) [Compound 102, 5-((3,4-Dichlorobenzyl)amino)-1-((tetrahydrofuran-2-yl)methyl)-1H-pyrazolo[4,3-d]pyrimidin-7(6H)-one], the “MIC NRS 384 (MRSA)” value in experiment [1] (setting [8]) was 4/4. The minimal inhibitory concentration (MIC) in experiment [2] (setting [8]) is 4 µg/mL (≈ 10.1 µM); in experiment [3] (setting [9]) it was 4 µg/mL (≈ 10.1 µM); in experiment [5] (setting [10]), 4 µg/mL (≈ 10.1 µM); in experiment [6] (setting [11]) it was 1 µg/mL (≈ 2.54 µM); in experiment [7] (setting [12]), above 64 µg/mL. Besides, the “MIC E. faecium ATCC 700221 (VRE)” value in experiment [4] (setting [8]) is 2/4. Also, the “MIC E. coli ATCC 25922 + 4 mM EDTA” value in experiment [7] (setting [8]) is above 64 µg/mL.
